Assay results taken from patent US4016193A, “Novel substituted phenylacetic acid derivatives and a process for preparing thereof” (Mitsubishi Yuka Pharmaceutical Co., Ltd., priority 1974, dated 1977).
Like-named read-outs stand apart in the source and are kept apart here.

Assays:
carrageenin edema = experiment: Anti-inflammatory activity: inhibition of carrageenin edema of the rat paw, oral; format: in vivo, wistar male rats; conditions: read-out: inhibiting rate; for inhibition in vivo at 100 mg/kg: 100 mg/kg orally; for inhibition in vivo at 100 mg/kg / inhibition in vivo at 12.5 mg/kg / inhibition in vivo at 25 mg/kg / inhibition in vivo at 50 mg/kg: rats, 4 hours after carrageenin; for inhibition in vivo at 12.5 mg/kg: 12.5 mg/kg orally; for inhibition in vivo at 25 mg/kg: 25 mg/kg orally; for inhibition in vivo at 50 mg/kg: 50 mg/kg orally
Procedure: The anti-inflamatory activity is shown by inhibiting rate calculated from measurement of carrageenin edema intensity. Five wistar male rats having body weight of 120 - 180g are defined as one group and after fasted for 18 hours, the sample containing a 1% tragacanth solution such as is suspended so as to become 5 ml/kg was administered orally to the said group. Only the same volume of the 1% tragacanth solution was administered to the control group. After one hour, 0.05 ml of a 1% carrageenin (manufactured by Picnin-A, Pasco International Corp.) was injected subcutaneously to the plantar legion of right hind paw of rats. Before injection and after 4 hours of injection of carrageenin, the right hind paw volume was measured by means of paw volume measurement instrument manufactured by Ugo-Basile and an increase % of paw volume was calculated. The inhibiting rate was calculated from an increase ratio of the examined group against the central groups.

[1] = test system: writhing syndrome caused by acetic acid; experiment: Analgesic activity, acetic acid writhing method, oral; format: in vivo, dd origin male mice; conditions: for ED50: Mus musculus, po, read-out: ED50 (analgesic activity); for activity ratio: ratio of ED50 values, methyl 3-nitro-4-allyloxyphenylacetate defined as 1
Procedure: (b) The analgesic activity was measured by means of acetic and writhing
10dd origin male mice weighing 17 -
25g were used as one group after 18 hours of fasting. After oral
administration of the test compounds the frequencies of writhing syndrome
caused by intraperitoneal administration of 0.1 ml/10g of a 0.6% acetic
acid were measured for 20 minutes. The frequencies of writhing syndrome
which are below 50% of those of the control group were defined as
analgesic activity (+) and the ED50 values were calculated by means of
Litchfield-Wilcoxon method. The ED50 value of methyl
3-nitro-4-allyloxyphenylacetate is defined as 1 and the activity ratios of
the test compounds were expressed as ratio of ED50 values. The test
compounds were administered as a suspension such as are adjusted to be 0.1
ml/10g in a 1% tragacanth solution. A 1% tragacanth solution was
administered to the control group.

in vivo = conditions: rat, po, orally, rats
[2] = orally, mice, 0.6% acetic acid i.p., Litchfield-Wilcoxon method

SMILES	inhibition in vivo at 100 mg/kg (carrageenin edema) [%]	ED50 [1, 2] [mg/kg]	inhibition in vivo at 25 mg/kg (carrageenin edema) [%]	inhibition in vivo at 50 mg/kg (carrageenin edema) [%]	also measured
C=CCOc1ccc(C(C)C(=O)O)cc1[N+](=O)[O-] (stereo not shown) [2-(3-nitro-4-allyloxyphenyl)propionic acid]	40.1				
C=CCOc1ccc(CC(=O)O)cc1[N+](=O)[O-] [3-Nitro-4-allyloxyphenylacetic acid]		96	24.3	66.6	activity ratio [1]: 0.32; LD50 (in vivo; female): 1360 mg/kg; LD50 (in vivo; male): 1480 mg/kg; inhibition in vivo at 12.5 mg/kg (carrageenin edema): 13.9%
C#CCOc1ccc(CC(=O)O)cc1[N+](=O)[O-] [3-Nitro-4-propargyloxyphenylacetic acid]	40.3			28.8	
C=CCOc1ccc(CC(=O)O)cc1Cl [3-chloro-4-allyloxyphenylacetic acid]	62	56.8	47	51.8	
C=CCOc1ccc(CC(N)=O)cc1[N+](=O)[O-] [3-nitro-4-allyloxyphenylacetamide]	37.7				
Cc1c(N(C)C)c(=O)n(-c2ccccc2)n1C [Aminopyrine]		80			activity ratio [1]: 0.38
CC(=O)Oc1ccccc1C(=O)O [Aspirin]					ED50 [1]: 320 mg/kg; activity ratio [1]: 0.09
C=CCOc1ccc(C(C)C(=O)OCC)cc1[N+](=O)[O-] (stereo not shown) [Ethyl 2-(3-nitro-4-allyloxyphenyl)propionate]	55.5				
COc1ccc2c(c1)c(CC(=O)O)c(C)n2C(=O)c1ccc(Cl)cc1 [Indomethacine]					inhibition in vivo at 1 mg/kg (carrageenin edema; 4 h): 39.8%; inhibition in vivo at 3 mg/kg (carrageenin edema; 4 h): 46%; inhibition in vivo at 9 mg/kg (carrageenin edema; 4 h): 60.4%
COc1cc(C)nc(-n2nc(C)cc2OC)n1 [Mepirizole]	52.7	117	19.5	51.8	activity ratio [1]: 0.26; LD50 (in vivo; female): 971 mg/kg; LD50 (in vivo; male): 1020 mg/kg
C=CCOc1ccc(C(C)C(=O)OC)cc1[N+](=O)[O-] (stereo not shown) [Methyl 2-(3-nitro-4-allyoxyphenyl)propionate]	50.1				
C=CCOc1ccc(CC(=O)OC)cc1[N+](=O)[O-] [Methyl 3-nitro-4-allyloxyphenylacetate]		31	72.1		LD50 (in vivo; female): > 3000 mg/kg; LD50 (in vivo; male): > 3000 mg/kg; inhibition in vivo at 12.5 mg/kg (carrageenin edema): 51.7%
C#CCOc1ccc(CC(=O)OC)cc1[N+](=O)[O-] [Methyl 3-nitro-4-propargyloxyphenylacetate]	44.9				
CCCCC1C(=O)N(c2ccccc2)N(c2ccccc2)C1=O [Phenylbutazone]			49.1	59.4	inhibition in vivo at 12.5 mg/kg (carrageenin edema): 14.1%
